The molecules below were run on 229E human corona virus (hCoV) (assay: 229E live virus assay (CPE, ATPlite readout in MRC-5 cells)). Conditions: Human coronavirus 229E, MRC5, hCoV-229E live virus, MOI 0.05, ATPlite readout, run in duplicate.
Assay type: cell-based, hCoV-229E
In the case of `CC(C)C[C@@H](C(=O)N1C[C@]2(C[C@H]1C(=O)C(=O)NC1CCCCC1)C(=O)Nc1ccccc12)N(C)C(=O)c1cc2c(F)cc(F)c(F)c2[nH]1` [Example 156], the EC50 is reported as greater than 1 µM.
`CC(C)C[C@@H](C(=O)N1C[C@]2(C[C@H]1C#N)C(=O)Nc1ccccc12)N(C)C(=O)c1cc2cc(Br)ccc2cn1` [Example 230] gave an EC50 of less than 0.1 µM.
With `COc1cc(C(=O)N(C)[C@@H](CC(C)C)C(=O)N2C[C@]3(C[C@H]2C#N)C(=O)Nc2ccccc23)cn2cc(C(F)F)nc12` [Example 255] the EC50 was less than 0.1 µM.
`[2H]C([2H])([2H])N(C(=O)c1cc2c(F)cc(F)cc2[nH]1)[C@@H](CC(C)(C)F)C(=O)N1C[C@]2(C[C@H]1C#N)C(=O)Nc1cc(C(F)(F)F)ccc12` [Example 472, N-((S)-1-((3R,5'S)-5'-cyano-2-oxo-6-(trifluoromethyl)spiro[indoline-3,3'-pyrrolidin]-1-yl)-4-fluoro-4-methyl-1-oxopentan-2-yl)-4,6-difluoro-N-(methyl-d3)-1H-indole-2-carboxamide] was tested, and the EC50 was less than 0.1 µM.
Work on `CC(C)(C)C[C@H](NC(=O)c1cc2c(F)cc(F)cc2[nH]1)C(=O)N1C[C@]2(C[C@H]1C#N)C(=O)Nc1ccc(Cl)cc12` [Example 448] yielded an EC50 of less than 0.1 µM.
In the case of `CC(C)C[C@@H](C(=O)N1C[C@]2(C[C@H]1C#N)C(=O)Nc1ccccc12)N(C)C(=O)c1cc2ccccc2cn1` [Example 212], the EC50 is reported as less than 0.1 µM.
`CC(C)C[C@@H](C(=O)N1C[C@]2(C[C@H]1C#N)C(=O)Nc1ccccc12)N(C)C(=O)c1cc2c(Br)ccc(Cl)c2[nH]1` [Example 66] gave an EC50 of less than 0.1 µM.
Molecule `CC(C)C[C@@H](C(=O)N1C[C@]2(C[C@H]1C#N)C(=O)Nc1ccccc12)N(C)C(=O)c1nnc(-c2ccc(F)cc2)o1` [Example 355] has an EC50 of less than 0.1 µM.
`COc1ccnc(C(=O)N(C)[C@@H](CC(C)C)C(=O)N2C[C@]3(C[C@H]2C#N)C(=O)Nc2ccccc23)c1` [Example 192] was tested, and the EC50 was less than 0.1 µM.
Work on `COc1ccc(Cl)c(C(=O)N(C)[C@@H](CC(C)C)C(=O)N2C[C@]3(C[C@H]2C#N)C(=O)Nc2ccccc23)c1` [Example 58] yielded an EC50 of 0.1 to 1 µM.
In the case of `CC(C)(C)C[C@H](NC(=O)c1ccc2ncc(C(F)(F)F)cc2c1)C(=O)N1C[C@]2(C[C@H]1C#N)C(=O)Nc1ccccc12` [Example 134], the EC50 is reported as less than 0.1 µM.
`[2H]C([2H])([2H])N(C(=O)[C@H](O)c1ccccc1)[C@@H](CC(C)(C)C)C(=O)N1C[C@]2(C[C@H]1C#N)C(=O)Nc1ccccc12` [Example 428] gave an EC50 of less than 0.1 µM.
`CN(C(=O)OCc1ccccc1)[C@@H](CC1CC1)C(=O)N1C[C@]2(C[C@H]1C#N)C(=O)Nc1ccccc12` [Example 102] was tested, and the EC50 was greater than 1 µM.
For `CC(C)C[C@@H](C(=O)N1C[C@]2(C[C@H]1C#N)C(=O)Nc1ccccc12)N(C)C(=O)c1nc2ccccc2s1` [Example 206], the EC50 was less than 0.1 µM.
Work on `CC(C)C[C@@H](C(=O)N1C[C@]2(C[C@H]1C#N)C(=O)Nc1ccccc12)N(C)C(=O)c1[nH]c2ccccc2c1-c1ccccc1` [Example 48] yielded an EC50 of 0.1 to 1 µM.
`CC(C)C[C@H](NC(=O)c1cc2c(F)cccc2[nH]1)C(=O)N1C[C@]2(C[C@H]1C=O)C(=O)Nc1ccccc12` [Example 25] was tested, and the EC50 was less than 0.1 µM.
For `[2H]C([2H])([2H])N(C(=O)[C@@H](O)c1ccccc1)[C@@H](CC(C)(C)C)C(=O)N1C[C@]2(C[C@H]1C#N)C(=O)Nc1ccccc12` [Example 427], the EC50 was less than 0.1 µM.
Work on `COc1cccc2[nH]c(C(=O)N(C)[C@@H](CC(C)C)C(=O)N3C[C@]4(C[C@H]3C#N)C(=O)Nc3ccccc34)cc12` [Example 42] yielded an EC50 of less than 0.1 µM.
`CC(C)C[C@@H](C(=O)N1C[C@]2(C[C@H]1C#N)C(=O)Nc1ccccc12)N(C)C(=O)c1cc(Cl)c2[nH]c(C3CC3)nc2c1` [Example 256] gave an EC50 of less than 0.1 µM.
Work on `CN(C(=O)c1cc2c(F)cccc2[nH]1)[C@@H](CC1CCC1)C(=O)N1C[C@]2(C[C@H]1C#N)C(=O)Nc1ccccc12` [Example 93] yielded an EC50 of less than 0.1 µM.
In the case of `CC(C)C[C@@H](C(=O)N1C[C@]2(C[C@H]1C#N)C(=O)Nc1ccccc12)N(C)C(=O)c1ccc(-c2ccccc2)cc1` [Example 277], the EC50 is reported as less than 0.1 µM.
`CC(C)(C)OC(=O)NC[C@H](NC(=O)c1cc2c(F)cc(F)cc2[nH]1)C(=O)N1C[C@]2(C[C@H]1C#N)C(=O)Nc1ccccc12` [Example 128] was tested, and the EC50 was greater than 1 µM.
`COc1cccc2[nH]c(C(=O)N[C@@H](CC(C)C)C(=O)N3C[C@]4(C[C@H]3C(=O)C(=O)NCc3ccccc3)C(=O)Nc3ccccc34)cc12` [Example 32] gave an EC50 of 0.1 to 1 µM.
In the case of `CN(C(=O)c1cc2c(F)c(F)ccc2[nH]1)[C@@H](CC(C)(C)C)C(=O)N1C[C@]2(C[C@H]1C#N)C(=O)Nc1ccccc12` [Example 86], the EC50 is reported as less than 0.1 µM.
For `CC(C)C[C@@H](C(=O)N1C[C@]2(C[C@H]1C#N)C(=O)Nc1ccccc12)N(C)C(=O)c1cnc2ccccc2c1O` [Example 260], the EC50 was less than 0.1 µM.
Molecule `COc1cccc2[nH]c(C(=O)N[C@@H](CC(C)(C)C)C(=O)N3C[C@]4(C[C@H]3C#N)C(=O)Nc3ccccc34)cc12` [Example 15] has an EC50 of less than 0.1 µM.
`CC(C)C[C@@H](C(=O)N1C[C@]2(C[C@H]1C#N)C(=O)Nc1ccccc12)N(C)C(=O)c1ccc(Cl)c(F)c1F` [Example 175] showed an EC50 of less than 0.1 µM.
For `CC(C)C[C@@H](C(=O)N1C[C@]2(C[C@H]1C#N)C(=O)Nc1ccccc12)N(C)C(=O)c1ncccc1Cl` [Example 59], the EC50 was greater than 1 µM.
Work on `CC(C)C[C@@H](C(=O)N1C[C@]2(C[C@H]1C#N)C(=O)Nc1ccccc12)N(C)C(=O)c1cncc(F)c1` [Example 196] yielded an EC50 of less than 0.1 µM.
`CC(C)C[C@@H](C(=O)N1C[C@]2(C[C@H]1C#N)C(=O)Nc1ccccc12)N(C)C(=O)c1cc(F)c2nn(C)cc2c1` [Example 309] showed an EC50 of less than 0.1 µM.
For `[2H]C([2H])([2H])N(C(=O)c1cn(-c2ccc(Cl)cc2)nn1)[C@@H](CC(C)(C)C)C(=O)N1C[C@]2(C[C@H]1C#N)C(=O)Nc1ccccc12` [Example 377], the EC50 was less than 0.1 µM.
In the case of `CC(C)C[C@@H](C(=O)N1C[C@]2(C[C@H]1C#N)C(=O)Nc1ccccc12)N(C)C(=O)[C@H]1CCN(C(=O)OC(C)(C)C)C1` [Example 344], the EC50 is reported as 0.1 to 1 µM.
Work on `CC(C)C[C@@H](C(=O)N1C[C@]2(C[C@H]1C#N)C(=O)Nc1ccccc12)N(C)C(=O)[C@H](c1cnn(C)c1)C(C)C` [Example 349] yielded an EC50 of 0.1 to 1 µM.
Work on `N#C[C@@H]1C[C@@]2(CN1C(=O)[C@H](COCc1cnn[nH]1)NC(=O)c1cc3c(F)cc(F)cc3[nH]1)C(=O)Nc1ccccc12` [Example 129] yielded an EC50 greater than 1 µM.
`CN(C(=O)c1cc2c(F)cc(F)c(F)c2[nH]1)[C@@H](CCC(C)(C)C)C(=O)N1C[C@]2(C[C@H]1C#N)C(=O)Nc1ccccc12` [Example 412] gave an EC50 of less than 0.1 µM.
`CC(C)C[C@@H](C(=O)N1C[C@]2(C[C@H]1C#N)C(=O)Nc1ccc(S(C)(=O)=O)cc12)N(C)C(=O)c1cc2c(F)cc(F)cc2[nH]1` [Example 500, N-((S)-1-((3R,5'S)-5'-cyano-5-(methylsulfonyl)-2-oxospiro[indoline-3,3'-pyrrolidin]-1'-yl)-4-methyl-1-oxopentan-2-yl)-4,6-difluoro-N-methyl-1H-indole-2-carboxamide] showed an EC50 of less than 0.1 µM.
`COc1cccc2[nH]c(C(=O)N(C)[C@@H](CC3CCCCC3)C(=O)N3C[C@]4(C[C@H]3C#N)C(=O)Nc3ccccc34)cc12` [Example 113] was tested, and the EC50 was less than 0.1 µM.
Work on `CC(C)C[C@@H](C(=O)N1C[C@]2(C[C@H]1C(=O)C(=O)NC1CC1)C(=O)Nc1ccccc12)N(C)C(=O)c1cc2c(F)cccc2[nH]1` [Example 36] yielded an EC50 of 0.1 to 1 µM.
With `CC(C)C[C@@H](C(=O)N1C[C@]2(C[C@H]1C(=O)C(=O)NC1CCCCC1)C(=O)Nc1ccccc12)N(C)C(=O)c1cc2c(F)cc(F)cc2[nH]1` [Example 155] the EC50 was greater than 1 µM.
In the case of `CC(C)C[C@@H](C(=O)N1C[C@]2(C[C@H]1C#N)C(=O)Nc1ccccc12)N(C)C(=O)c1nc2ccccc2n1C` [Example 282], the EC50 is reported as less than 0.1 µM.
In the case of `CC(C)C[C@@H](C(=O)N1C[C@]2(C[C@H]1C#N)C(=O)Nc1ccccc12)N(C)C(=O)c1cc2c(F)cc(F)cc2[nH]1` [Example 46], the EC50 is reported as less than 0.1 µM.
Molecule `CC(C)C[C@@H](C(=O)N1C[C@]2(C[C@H]1C#N)C(=O)Nc1ccccc12)N(C)C(=O)c1ccccc1-c1ccccc1` [Example 261] has an EC50 of 0.1 to 1 µM.

Same assay, conditions: hCoV-229E live virus, MOI 0.05, ATPlite readout, run in duplicate
`CC(C)CC(C(=O)N1CC2(CC1C#N)C(=O)Nc1ccccc12)N(C)C(=O)C1CC1c1ccccc1` (stereo not drawn) [Example 281] gave an EC50 of less than 0.1 µM.

What follows are molecules tested against SARS-CoV-2 3CL-protease (Severe acute respiratory syndrome coronavirus 2, UniProt P0DTD1) (assay: SARS-CoV-2 3C-like (3CL) protease fluorescence assay (FRET)). Conditions: SARS-CoV-2 3CL-protease 10 nM, 30 min preincubation at RT, substrate 40 µM, test compounds 0 - 10 µM, duplicate; read-out: FRET IC50.
Assay type: biochemical
For `CC(C)CC(C(=O)N1CC2(CC1C#N)C(=O)Nc1ccccc12)N(C)C(=O)c1nccc2ccccc12` (stereo not drawn) [Example 300], the IC50 was 0.1 to 1 µM.
With `CC(C)C[C@H](NC(=O)c1cc2c(F)cc(F)c(F)c2[nH]1)C(=O)N1C[C@]2(C[C@H]1C#N)C(=O)Nc1ccccc12` [Example 152] the IC50 was less than 0.1 µM.
In the case of `CN(C(=O)c1cnn(C(C)(C)C)c1)[C@@H](CC1CC1)C(=O)N1C[C@]2(C[C@H]1C#N)C(=O)Nc1ccccc12` [Example 404], the IC50 is reported as less than 0.1 µM.
With `COC[C@@H](C(=O)N1C[C@]2(C[C@H]1C#N)C(=O)Nc1ccccc12)N(C)C(=O)c1cc2c(F)cc(F)cc2[nH]1` [Example 369] the IC50 was less than 0.1 µM.
Molecule `CC(C)CC(C(=O)N1CC2(CC1C#N)C(=O)Nc1ccccc12)N(C)C(=O)c1cnc2ccc(F)cc2c1` (stereo not drawn) [Example 337] has an IC50 of less than 0.1 µM.
With `[2H]C([2H])([2H])N(C(=O)C(O)c1ccc(F)cc1)C(CCCC)C(=O)N1CC2(CC1C#N)C(=O)Nc1ccccc12` (stereo not drawn) [Example 420] the IC50 was less than 0.1 µM.
`C[C@@H](OC(=O)N[C@@H](CC(C)(C)C)C(=O)N1C[C@]2(C[C@H]1C#N)C(=O)Nc1ccc(F)cc12)c1ccc(F)cc1` [Example 523] showed an IC50 of less than 0.1 µM.
Molecule `CN(C(=O)c1cc2c(F)cc(F)cc2[nH]1)[C@@H](Cc1ccc(O)cc1)C(=O)N1C[C@]2(C[C@H]1C#N)C(=O)Nc1ccccc12` [Example 388] has an IC50 of less than 0.1 µM.
With `[2H]C([2H])([2H])N(C(=O)C(O)c1ccc(F)cc1)C(CCCC)C(=O)N1CC2(CC1C#N)C(=O)Nc1ccccc12` (stereo not drawn) [Example 421] the IC50 was less than 0.1 µM.
For `[2H]C([2H])([2H])N(C(=O)c1cnn(CC(F)(F)F)c1)[C@@H](CCCC)C(=O)N1C[C@]2(C[C@H]1C#N)C(=O)Nc1ccccc12` [Example 394], the IC50 was less than 0.1 µM.

Same assay, conditions: read-out: FRET IC50
Molecule `CC(C)CC(C(=O)N1CC2(CC1C#N)C(=O)Nc1ccccc12)N(C)C(=O)C1CC1c1ccccc1` (stereo not drawn) [Example 281] has an IC50 of less than 0.1 µM.
`CC(C)C[C@@H](C(=O)N1C[C@]2(C[C@H]1C(=O)C(=O)NC1CCCCC1)C(=O)Nc1ccccc12)N(C)C(=O)c1cc2c(F)cc(F)c(F)c2[nH]1` [Example 156] showed an IC50 greater than 1 µM.
`CC(C)C[C@@H](C(=O)N1C[C@]2(C[C@H]1C#N)C(=O)Nc1ccccc12)N(C)C(=O)c1cc2cc(Br)ccc2cn1` [Example 230] gave an IC50 of 0.1 to 1 µM.
`COc1cc(C(=O)N(C)[C@@H](CC(C)C)C(=O)N2C[C@]3(C[C@H]2C#N)C(=O)Nc2ccccc23)cn2cc(C(F)F)nc12` [Example 255] gave an IC50 of less than 0.1 µM.

From patent EP4001279A1, “NOVEL SPIROPYRROLIDINE DERIVED ANTIVIRAL AGENTS” (Enanta Pharmaceuticals, Inc., priority 2020, dated 2022)
